We go through nine compounds from article PMC10815436, “Toward New AQP4 Inhibitors: ORI-TRN-002” (International Journal of Molecular Sciences, 2024).

Values joined by “and” are separate entries in the source; they are usually repeats but may differ in a detail not shown here. Identical values can stand only once. Like-named read-outs stand apart in the source and are kept apart here.

The nature of data set [1]: Octanol-water distribution coefficient at pH 7.4 (Origenis BRAINstorm platform, affinity chromatography). Format: physicochemical. An excerpt: (§1) To evaluate the potential drug-like properties of the electronic homologue ORI-TRN-002, we measured the compound’s properties in the Origenis BRAINstorm™ platform. This platform uses affinity chromatography under standard conditions and standard calibrants to measure compound properties with high accuracy and reproducibility. […] It supersedes the solubility and free fraction limitations of the Aeromics/Simcere drug AER-270 [21] (Figure 2). ORI-TRN-002 requires no prodrug approach and serves as an ideal starting point for further optimization.
(§2) The chemical structures of the three AQP4 inhibitors studied and their measured physico-chemical properties (logD at pH 7.4, log10 of molar human serum albumin affinity constant, percent human plasma protein binding, log10 of human alpha acid glycoprotein affinity constant, unbound fraction in liver, and unbound fraction in hepatocytes). TEXT PRINTED IN THE PICTURE: TGN-020: logD: 0.04; logKaHSA: 3.51; hPPB%: 68.20; logKaRSA: 2.72; logKaAGP: 1.18; fu, liver: 1.00; fu, hep: 0.92 | AER-270: logD: 3.31; logKaHSA: 5.46; hPPB%: 99.50; logKaRSA: 5.26; logKaAGP: 6.94; fu, liver: <0.01; fu, hep: <0.01 | ORI-TRN-002: logD: -0.07; logKaHSA: 2.99; hPPB%: 39.20; logKaRSA: 2.89; logKaAGP: 1.88; fu, liver: 1.00; fu, hep: 0.95

The target in data set [2] is human serum albumin (Homo sapiens, UniProt P02768). The data set is described as follows: Human serum albumin affinity (BRAINstorm affinity chromatography). The format is binding.
Source text: as §1, §2

Data set [3] addresses rat serum albumin (Rattus norvegicus, UniProt P02770). The data set is described as follows: Rat serum albumin affinity (BRAINstorm affinity chromatography). The format is binding.
Source text: as §1, §2

Data set [4] in a line: Percentage of binding to human plasma proteins (BRAINstorm). Format: in vitro ADME.
Source text: as §1, §2

The nature of data set [5]: Unbound fraction in liver (BRAINstorm). The format is in vitro ADME.
Source text: as §1, §2

The nature of data set [6]: Unbound fraction in hepatocytes (BRAINstorm). Format: in vitro ADME.
Source text: as §1, §2

Data set [7] relates to human AQP4. The following applies: cited from earlier work.
In data set [8] the test system is cerebral edema. Conditions: cited from earlier work.
The test system of data set [9] is cerebral edema. On the set-up: method as in doi:10.1097/01.ccm.0000473851.20338.3b, PMID 29635589. Conditions: various traumatic brain injury models; cited from earlier work.
The subject of data set [10] is AQP4. On the set-up: method as in PMID 32506554, PMID 30934923. The following applies: cited from earlier work.
For data set [11], the system named is AQP4.M23. On the set-up: method as in PMID 17178220. Conditions: oocytes; cited from earlier work.
The test system of data set [12] is AQP4-expressing oocytes. Nature of the data set: Membrane potential of treated AQP4-expressing oocytes (toxicity check). The format is cell-based, Xenopus laevis.
Source text: Following the introduction of an abrupt hyposmotic challenge (−100 mOsm), we determined the osmotic water permeability of the oocytes during the continuous recording of the oocyte volume with a high-resolution volume recording system. This experimental setup allows for the osmotic gradient to be introduced at a faster rate than the rate of cell volume change and sufficiently fast data acquisition to obtain several data points at the initial linear part of the cell volume change, which is required to obtain the osmotic water permeability of an AQP-expressing oocyte. […] The oocytes were exposed to the novel drugs (or control solution) for 60 min. prior to the determination of water permeability. The established AQP4 blockers, TGN-020 and AER-270, served as positive controls.
Data set [13] has as its target rat AQP4 (Rattus norvegicus, UniProt P47863). Nature of the data set: Osmotic water permeability of rat AQP4-expressing Xenopus laevis oocytes (high-resolution volume recording, hyposmotic challenge). The following applies: IC50 for rAQP4 (AQP4-mediated water permeability), rat AQP4 in Xenopus laevis oocytes, different concentrations, n = 6, mean ± SEM.
Source text: To resolve ORI-TRN-002’s inhibitory effect on AQP4, rat AQP4 (rAQP) was heterologously expressed in Xenopus laevis oocytes, and the AQP4-mediated water permeability was quantified. Following the introduction of an abrupt hyposmotic challenge (−100 mOsm), we determined the osmotic water permeability of the oocytes during the continuous recording of the oocyte volume with a high-resolution volume recording system. This experimental setup allows for the osmotic gradient to be introduced at a faster rate than the rate of cell volume change and sufficiently fast data acquisition to obtain several data points at the initial linear part of the cell volume change, which is required to obtain the osmotic water permeability of an AQP-expressing oocyte. The native oocyte membrane has a low inherent water permeability, thus the uninjected oocytes display a negligible background (see Figure 3A for summarized data on osmotic water permeabilities; compare 0.21 ± 0.13 × 10^−3 cm s^−1, n = 9, for uninjected oocytes to 3.80 ± 0.33 × 10^−3 cm s^−1, n = 11, for AQP4-expressing oocytes; representative volume traces shown as insets)). The oocytes were exposed to the novel drugs (or control solution) for 60 min. prior to the determination of water permeability. The established AQP4 blockers, TGN-020 and AER-270, served as positive controls. […]
The mark [14] stands for this setting: read-out: logKaHSA (log10 of molar human serum albumin affinity constant) (converted).
[15] abbreviates: read-out: logKaRSA (rat serum albumin affinity) (converted).
The mark [16] stands for this setting: human plasma proteins, read-out: hPPB% (percent human plasma protein binding) (converted).
Setting [17] is: liver, read-out: fu, liver (unbound fraction in liver).
The mark [18] stands for this setting: read-out: fu, hep (unbound fraction in hepatocytes).

Sequence of human serum albumin (P02768 25-609): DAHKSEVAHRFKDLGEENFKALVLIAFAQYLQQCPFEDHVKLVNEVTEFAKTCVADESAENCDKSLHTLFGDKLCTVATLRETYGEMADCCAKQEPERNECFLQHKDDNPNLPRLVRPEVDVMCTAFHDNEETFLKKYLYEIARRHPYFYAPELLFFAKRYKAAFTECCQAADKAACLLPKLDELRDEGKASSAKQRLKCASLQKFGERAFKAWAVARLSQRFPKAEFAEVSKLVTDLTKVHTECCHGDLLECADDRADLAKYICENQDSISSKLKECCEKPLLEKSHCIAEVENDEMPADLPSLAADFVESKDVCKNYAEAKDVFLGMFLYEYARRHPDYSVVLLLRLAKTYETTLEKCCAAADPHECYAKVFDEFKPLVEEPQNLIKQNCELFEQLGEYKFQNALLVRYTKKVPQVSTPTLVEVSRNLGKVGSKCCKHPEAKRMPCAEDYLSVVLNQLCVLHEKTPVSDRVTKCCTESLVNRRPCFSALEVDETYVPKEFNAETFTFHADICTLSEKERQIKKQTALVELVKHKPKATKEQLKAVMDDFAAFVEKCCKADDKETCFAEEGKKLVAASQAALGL
Sequence of rat serum albumin (P02770 25-608): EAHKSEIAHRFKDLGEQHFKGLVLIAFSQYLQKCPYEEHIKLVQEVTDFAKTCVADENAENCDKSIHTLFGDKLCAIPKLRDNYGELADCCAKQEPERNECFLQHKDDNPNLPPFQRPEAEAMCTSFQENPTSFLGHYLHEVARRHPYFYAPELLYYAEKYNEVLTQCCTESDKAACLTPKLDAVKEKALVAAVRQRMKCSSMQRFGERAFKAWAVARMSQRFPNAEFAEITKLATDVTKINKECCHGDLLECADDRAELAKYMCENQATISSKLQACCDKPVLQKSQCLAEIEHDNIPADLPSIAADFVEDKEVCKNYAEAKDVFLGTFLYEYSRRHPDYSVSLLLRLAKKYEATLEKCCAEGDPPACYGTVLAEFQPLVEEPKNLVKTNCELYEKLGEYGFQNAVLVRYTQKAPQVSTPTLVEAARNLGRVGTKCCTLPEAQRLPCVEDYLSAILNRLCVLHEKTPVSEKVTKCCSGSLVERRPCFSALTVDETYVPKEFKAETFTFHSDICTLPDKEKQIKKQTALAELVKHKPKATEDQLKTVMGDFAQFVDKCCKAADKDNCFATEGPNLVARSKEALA
Sequence of rat AQP4 (P47863 23-323): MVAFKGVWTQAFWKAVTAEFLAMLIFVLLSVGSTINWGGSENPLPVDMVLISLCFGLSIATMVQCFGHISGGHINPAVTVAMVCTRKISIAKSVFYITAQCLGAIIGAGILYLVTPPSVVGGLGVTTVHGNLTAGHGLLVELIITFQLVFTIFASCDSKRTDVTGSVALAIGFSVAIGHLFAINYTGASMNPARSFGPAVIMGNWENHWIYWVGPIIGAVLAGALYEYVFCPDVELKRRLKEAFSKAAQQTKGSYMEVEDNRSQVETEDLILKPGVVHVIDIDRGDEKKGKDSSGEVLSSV

Usually chromatographic logD stands for a lipophilicity value derived from retention on a column. As to `O=C(Nc1cc(C(F)(F)F)cc(C(F)(F)F)c1)c1cc(Cl)ccc1O` [AER-270, N-[3,5-bis (trifluoromethyl)phenyl]-5-chloro-2-hydroxybenzamide], the chromatographic logD in data set [1] stood at 3.31. The Kd in data set [2] is 3.47 µM; in data set [3], 5.5 µM. Also, the fraction unbound in [4] (plasma) was 0.005; in data set [5], less than 0.01; in data set [6], less than 0.01. The “maximal inhibition of human AQP4” value in data set [7] is 20%.
As for `O=C(Nc1cc(C(F)(F)F)cc(C(F)(F)F)c1)c1cc(Cl)ccc1OP(=O)(O)O` [AER-271, 2-([3,5-Bis(trifluoromethyl)phenyl]carbamoyl)-4-chlorophenyl dihydrogen phosphate], in data set [8] (rodent model of transient MCAO), the AQP4-mediated cerebral edema result is “selectively and effectively reduced”; the neurological outcome was “improved”. Further, the “swelling in two models of CNS injury complicated by cerebral edema” value in data set [8] (water intoxication and ischemic stroke modeled by MCAO) is recorded as “reduce swelling”. For the same compound, the “reduction of cerebral edema” value in [9] is “ineffective”.
As for `CCCCNc1cc(C(=O)Nc2ccncc2)cc(S(N)(=O)=O)c1Oc1ccccc1` [AqB013], the “block of AQP4-mediated water permeability” value (shortened to “block”) in data set [10] is on record as “not be effective blockers”.
Take `CCOc1ccc2nc(S(N)(=O)=O)sc2c1` [Ethoxyzolamide]: in [11], the “inhibition of AQP4.M23” value is “inhibit”.
The IC50 is the concentration at which inhibition is half-maximal. A low value points to higher potency. Take `O=c1[nH]c(-c2cccnc2)nc2[nH]ncc12` [ORI-TRN-002, 6-(pyridin-3-yl)-1H-pyrazolo[3,4-d]pyrimidin-4(5H)-one]: the “membrane potential of treated oocytes” value in data set [12] (20 μM acute application, 10 min, non-treated -25.6 ± 0.50 mV, n = 9) is reported as −26.9 ± 0.61 mV; in data set [12] (20 µM, 60 min, non-treated −26.2 ± 0.62 mV, n = 12) it was −24.4 ± 0.74 mV. Further, the chromatographic logD in data set [1] (octanol/water) is -0.07. Further, the Kd in [2] (setting [14]) is 1020 µM; in [3] (setting [15]), 1290 µM. For the same compound, the fraction unbound in data set [4] (setting [16]) is 0.608; in data set [5] (setting [17]), 1; in data set [6] (setting [18]), 0.95. Also, the IC50 in data set [13] was ~3 µM and 2.9 µM.
`O=C(Nc1nncs1)c1cccnc1` [TGN-020, 2-(nicotinamide)-1,3,4-thiadiazole]: the chromatographic logD in data set [1] (octanol/water) was determined as 0.04. In addition, the values for the Kd in [2] (setting [14]) and in data set [3] (setting [15]) were 309 µM and 1910 µM, respectively. For the same compound, the fraction unbound in data set [4] (setting [16]) is 0.318; in data set [5] (setting [17]) it was 1; in data set [6] (setting [18]) it was 0.92.
Take `CC(=O)Nc1nnc(S(N)(=O)=O)s1` [acetazolamide]: the “block” value in [10] is listed as “not be effective blockers”.
Turning to `CCCCNc1cc(C(=O)O)cc(S(N)(=O)=O)c1Oc1ccccc1` [bumetanide], the “block” value in data set [10] is reported as “not be effective blockers”.
On to `CC[N+](CC)(CC)CC` [tetraethylammonium (TEA), tetraethylammonium], for which, in [10], the “block” value was “not be effective blockers”.
